Article PMC6835155, “Lessons from LIMK1 enzymology and their impact on inhibitor design” (Biochemical Journal, 2019)
Counter-ions that a name gives are not always drawn. Like-named read-outs stand apart in the source and are kept apart here.

Experiments:
LIMK1KD = target: T1, LIMK1KD (Homo sapiens, UniProt P53667); assay: Differential (dynamic) scanning fluorimetry (DSF) assay, LIMK1KD; format: binding; conditions: 2 µM LIMK1KD, compound 10 µM, single shot; for ΔTm at 10 µM: read-out: TM Shift LIMK1 (K)
T1 construct: His6 (N, cleaved yes); made in house; host or cells: baculovirus; Sf9 for virus, TriEx insect cells for expression
T1 sequence (P53667 330-637): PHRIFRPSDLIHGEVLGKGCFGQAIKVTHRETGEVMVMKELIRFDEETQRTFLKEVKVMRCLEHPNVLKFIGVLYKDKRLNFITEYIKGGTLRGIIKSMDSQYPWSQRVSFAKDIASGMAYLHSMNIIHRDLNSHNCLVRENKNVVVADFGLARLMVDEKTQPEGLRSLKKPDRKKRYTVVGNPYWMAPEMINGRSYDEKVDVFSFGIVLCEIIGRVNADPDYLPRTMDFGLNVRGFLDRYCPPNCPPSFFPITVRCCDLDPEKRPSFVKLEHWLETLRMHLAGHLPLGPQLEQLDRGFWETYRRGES

LIMK2KD = target: T2, LIMK2KD (Homo sapiens, UniProt P53671); assay: Differential (dynamic) scanning fluorimetry (DSF) assay, LIMK2KD; format: binding
T2 construct: The cDNA coding for LIMK2 residues 330 to 632 was PCR amplified; His6 (N, cleaved yes); made in house; host or cells: baculovirus; Sf9 for virus, TriEx insect cells for expression
T2 sequence (P53671 330-632): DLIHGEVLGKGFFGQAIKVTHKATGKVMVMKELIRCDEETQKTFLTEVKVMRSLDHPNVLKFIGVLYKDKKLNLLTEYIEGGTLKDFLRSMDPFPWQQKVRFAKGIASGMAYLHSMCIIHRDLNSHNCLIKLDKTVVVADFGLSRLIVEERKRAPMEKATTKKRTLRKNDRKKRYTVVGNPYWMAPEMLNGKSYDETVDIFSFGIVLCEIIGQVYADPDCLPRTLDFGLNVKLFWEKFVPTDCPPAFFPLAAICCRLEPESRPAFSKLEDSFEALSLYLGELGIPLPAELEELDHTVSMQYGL

[1] = LIMK2KD, compound 10 µM, single shot, read-out: TM Shift LIMK2 (K)
[2] = LIMK2KD, compound 10 µM, single shot
[3] = LIMK2KD, compound 10 µM, single shot, 10 µM

Structure (SMILES)	ΔTm at 10 µM (LIMK1KD) [°C]	ΔTm at 10 µM (LIMK2KD; [1]) [°C]	TM Shift LIMK1 (K) (LIMK1KD)	TM Shift LIMK2 (K) (LIMK2KD; [2])	also measured
N#CC[C@H](C1CCCC1)n1cc(-c2ncnc3[nH]ccc23)cn1 [Ruxolitinib (INCB018424), Ruxolitinib]	1.6	2.6	–	–	–
N#CC[C@@H](C1CCCC1)n1cc(-c2ncnc3[nH]ccc23)cn1 [S-Ruxolitinib (INCB018424), S-Ruxolitinib]	0.9	-0.7	–	–	–
CCn1c(=O)c(-c2cc[nH]n2)cc2c(C)nc(N)nc21 [SAR245409 (XL765)]	–	–	1.0	–	TM Shift LIMK2 (K) (LIMK2KD; [3]): 6.6 K
Oc1ccc(-c2nc(-c3ccc(F)cc3)c(-c3ccncc3)[nH]2)cc1 [SB202190 (FHPI)]	–	–	0.7	0.2	–
C[S+]([O-])c1ccc(-c2nc(-c3ccncc3)c(-c3ccc(F)cc3)[nH]2)cc1 (stereo not shown) [SB203580]	1.3	3.3	–	–	–
Cn1cc(C2=C(c3ccc(Cl)cc3Cl)C(=O)NC2=O)c2ccccc21 [SB216763]	0.7	1.3	–	–	–
O=C1NC(=O)C(c2ccccc2[N+](=O)[O-])=C1Nc1ccc(O)c(Cl)c1 [SB415286]	–	–	1.7	0.9	–
CN(C)CCOc1ccc(-c2nc(-c3ccncc3)c(-c3ccc4c(c3)CC/C4=N\O)[nH]2)cc1 [SB590885]	0.1	1	–	–	–
CN1CCC(CNc2ccc3ncc(-c4cccc(OC(F)(F)F)c4)n3n2)CC1 [SGI-1776 free base]	–	–	1.7	1.4	–
Oc1ccc(Nc2nc(-c3ccc(Cl)cc3)cs2)cc1 [SKI II]	–	–	-0.4	1.4	–
N#C/C(=C(/N)Sc1ccc(N)cc1)c1ccccc1C(F)(F)F [SL-327]	–	–	0.7	0.7	–
CC(C)(C)c1cnc(CSc2cnc(NC(=O)C3CCNCC3)s2)o1 [SNS-032 (BMS-387032)]	0.1	-0.3	–	–	–
O=C(Nc1cccc(Cl)c1)Nc1ncc(CCNc2ncnc3ccsc23)s1 [SNS-314 Mesylate]	-0.5	0.8	–	–	–
COc1c(C)c(C(=O)c2ccc(N)c(C(=O)[O-])c2)n2ccccc12.[Na+] [SSR128129E]	–	–	-0.6	2.4	–
CN1CCN(CCOc2cc(OC3CCOCC3)c3c(Nc4c(Cl)ccc5c4OCO5)ncnc3c2)CC1 [Saracatinib (AZD0530), Saracatinib]	1.2	0.8	–	–	–
CC[C@H](CO)Nc1nc(NCc2ccccc2)c2ncn(C(C)C)c2n1 [Seliciclib]	–	–	0.1	–	TM Shift LIMK1 (K) (LIMK1KD; listed as Roscovitine (Seliciclib,CYC202)): -0.4 K; TM Shift LIMK2 (K) (LIMK2KD; [3]): 0.0 K; TM Shift LIMK2 (K) (LIMK2KD; LIMK2KD, compound 10 µM, single shot, listed as Roscovitine (Seliciclib,CYC202), 10 µM): -1.3 K
Cn1cnc2c(F)c(Nc3ccc(Br)cc3Cl)c(C(=O)NOCCO)cc21 [Selumetinib (AZD6244), Selumetinib]	0.1	0.6	–	–	–
O=C1c2ccc(Nc3ccc(F)cc3F)cc2CCc2ccc(OC[C@H](O)CO)cc21 [Skepinone-L]	-0.5	-0.6	–	–	–
C=CCN(/C=C1/C(=O)O[C@H](COC)[C@@]2(C)C1=C(O)C(=O)C1=C2[C@H](OC(C)=O)C[C@]2(C)C(=O)CC[C@@H]12)CC=C [Sonolisib]	0.7	0.6	–	–	–

Structure (SMILES)	ΔTm at 10 µM (LIMK1KD) [°C]	ΔTm at 10 µM (LIMK2KD; [1]) [°C]	TM Shift LIMK1 (K) (LIMK1KD)	TM Shift LIMK2 (K) (LIMK2KD; [2])	also measured
CNC(=O)c1cc(Oc2ccc(NC(=O)Nc3ccc(Cl)c(C(F)(F)F)c3)cc2)ccn1 [Sorafenib Tosylate]	–	–	1.7	–	ΔTm at 10 µM (LIMK2KD; read-out: TM Shift LIMK2 (K), LIMK2KD, compound 10 µM, single shot): 1.5 °C
CN1CCN(c2nc(C3=C(c4c[nH]c5ccccc45)C(=O)NC3=O)c3ccccc3n2)CC1 [Sotrastaurin]	0.6	1.2	–	–	–
CN[C@@H]1C[C@H]2O[C@@](C)([C@@H]1OC)n1c3ccccc3c3c4c(c5c6ccccc6n2c5c31)C(=O)NC4 [Staurosporine]	5.1	–	–	–	ΔTm at 10 µM (LIMK2KD; read-out: TM Shift LIMK2 (K)): 3.3 °C
CCN(CC)CCNC(=O)c1c(C)[nH]c(/C=C2\C(=O)Nc3ccc(F)cc32)c1C [Sunitinib Malate]	–	–	1.6	–	TM Shift LIMK2 (K) (LIMK2KD; [3]): 0.5 K
CCN(CC)CCNC(=O)c1c(C)[nH]c(/C=C2\C(=O)Nc3ccc(F)cc32)c1C [Sunitinib]	1.8	–	–	–	TM Shift LIMK2 (K) (LIMK2KD; [3]): -0.1 K
CNC(=O)c1ccccc1Nc1nc(Nc2ccc(N3CCOCC3)cc2OC)ncc1Cl [TAE226 (NVP-TAE226)]	–	–	1.1	3.3	–
COc1ccc(C(=O)Nc2sc3c(c2C(N)=O)CCCC3)cc1OC [TCS 359]	–	–	1.3	1.1	–
Nc1nc(N)c2nc(-c3cccc(O)c3)c(-c3cccc(O)c3)nc2n1 [TG100-115]	–	–	1.3	2.4	–
Cc1cnc(Nc2ccc(OCCN3CCCC3)cc2)nc1Nc1cccc(S(=O)(=O)NC(C)(C)C)c1 [TG101348 (SAR302503)]	–	–	2.0	–	TM Shift LIMK2 (K) (LIMK2KD; [3]): 0.7 K
NC(=O)Nc1sc(-c2ccc(F)cc2)cc1C(N)=O [TPCA-1]	–	–	2.8	3.6	–
COc1cc(Nc2ncc(F)c(Nc3ccc4c(n3)NC(=O)C(C)(C)O4)n2)cc(OC)c1OC [Tamatinib]	5.5	3	–	–	–
COc1cc2c(N3CCN(C(=O)Nc4ccc(OC(C)C)cc4)CC3)ncnc2cc1OCCCN1CCCCC1 [Tandutinib (MLN518), Tandutinib]	0.8	0	–	–	–
CNC(=O)c1cc(COc2nnc(Nc3ccc(Cl)cc3)c3ccoc23)ccn1 [Telatinib]	-1.4	3.3	–	–	–
CO[C@H]1C[C@@H]2CC[C@@H](C)[C@@](O)(O2)C(=O)C(=O)N2CCCC[C@H]2C(=O)O[C@H]([C@H](C)C[C@@H]2CC[C@@H](OC(=O)C(C)(CO)CO)[C@H](OC)C2)CC(=O)[C@H](C)/C=C(\C)[C@@H](O)[C@@H](OC)C(=O)[C@H](C)C[C@H](C)/C=C/C=C/C=C/1C [Temsirolimus (CCI-779, NSC 683864), Temsirolimus]	-0.7	0	–	–	–
O=C(NCc1ccccc1)c1csc(Nc2ccncn2)n1 [Thiazovivin]	–	–	1.1	1.0	–
O=c1sn(-c2cccc3ccccc23)c(=O)n1Cc1ccccc1 [Tideglusib]	-0.5	3.9	–	–	–
COc1ccc2cc(-c3nc(-c4ccc([S+](C)[O-])cc4)[nH]c3-c3ccncc3)ccc2c1 (stereo not shown) [Tie2 kinase inhibitor]	–	–	1.3	1.4	–
O=C1NC(=O)[C@@H](c2cn3c4c(cccc24)CCC3)[C@@H]1c1c[nH]c2ccccc12 [Tivantinib]	0	0.6	–	–	–
COc1cc2nccc(Oc3ccc(NC(=O)Nc4cc(C)on4)c(Cl)c3)c2cc1OC [Tivozanib (AV-951), Tivozanib]	1.1	1.5	–	–	–

More lines, main results first:

ΔTm at 10 µM (LIMK1KD) [°C]	ΔTm at 10 µM (LIMK2KD; [1]) [°C]	TM Shift LIMK1 (K) (LIMK1KD)	TM Shift LIMK2 (K) (LIMK2KD; [2])	Structure (SMILES)	also measured
–	–	0.1	2.9	CCn1c(N)c(C(=O)NC)c(=O)c2ccc(C#C[C@@](C)(O)COC)nc21 [SAR131675]	–
0.3	0.1	–	–	O=C(Nc1ccc2[nH]nc(-c3ccncc3)c2c1)[C@@H]1CCN(CC(=O)N2CCN(c3ccc(-c4ncccn4)cc3)CC2)C1 [SCH772984]	–
-0.4	0.2	–	–	Cn1cc(-c2ccc3nnc(Sc4ccc5ncccc5c4)n3n2)cn1 [SGX-523]	–
–	–	-0.2	-0.4	O=C1NC(=O)/C(=C/c2cccc(C(F)(F)F)c2)S1 [SMI-4a]	–
1	2.1	–	–	Oc1c2ccccc2c2c3c(cccc13)N=N2 [SP600125]	–
1.4	-0.2	–	–	Cc1[nH]c(/C=C2\C(=O)Nc3ccc(S(=O)(=O)N(C)c4cccc(Cl)c4)cc32)c(C)c1C(=O)N1CCN(C)CC1 [SU11274]	–
-1.1	0	–	–	CC(C)(O)CC(=O)NCCn1ccc2ncnc(Nc3ccc(Oc4cccc(C(F)(F)F)c4)c(Cl)c3)c21 [TAK-285]	–
–	–	1.3	3.2	N#Cc1c(Oc2ccc(F)c(NC(=O)Cc3cccc(C(F)(F)F)c3)c2)ccc2nc(NC(=O)C3CC3)sc12 [TAK-632]	–
0.4	2.6	–	–	CCc1nc(-c2cccc(C)c2)c(-c2ccnc(NC(=O)c3ccccc3)c2)s1 [TAK-715]	–
-0.5	0.3	–	–	Cn1c(=O)c(F)c(Nc2ccc(I)cc2F)c2c(=O)n(C[C@@H](O)CO)cnc21 [TAK-733]	–
3.7	0.3	–	–	CCS(=O)(=O)c1cccc(-c2cc(C(=O)NC3CCN(C)CC3)c(C)c3[nH]c4ncc(C)cc4c23)c1 [TAK-901]	–
–	–	-1.0	-1.2	CCN1/C(=C/C(C)=O)Sc2ccc(OC)cc21 [TG003]	–
–	–	1.4	0.7	Nc1nc(N)c2nc(-c3cccc(O)c3)cnc2n1 [TG100713]	–
–	–	2.4	3.1	Cc1cnc(Nc2ccc(N3CCN(C)CC3)cc2)nc1Nc1cccc(S(=O)(=O)NC(C)(C)C)c1 [TG101209]	–
–	–	0.1	0.0	Cc1cc(C(C)Nc2ccccc2)c2nc(N3CCOCC3)cc(=O)n2c1 (stereo not shown) [TGX-221]	–
–	–	0.5	-1.2	Cc1ccccc1CN1C(=O)C2=C(CCN(Cc3ccccc3)C2)N2CCN=C12 [TIC10]	–
–	–	5.2	4.1	Nc1cccc(-c2cc3c(Oc4cccc(O)c4)ncnc3[nH]2)c1 [TWS119]	–
